Legend:
Experiment in all cases: relative viability (nuclei count vs DMSO), 5 days (fraction); higher = more cells survive
[1] = test system: NCI-H1915
Procedure, shortened: (§1)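 Each reported value is a median over duplicate plates. It expresses relative viability: treated-well nuclei count divided by vehicle-well nuclei count. Lung cancer cell lines in 1536-well plates were dosed by pin tool a day after seeding, alone with one drug or with a fixed anchor-drug dose plus five library-drug doses (not always all listed) in √10 steps, and nuclei were counted after 5 days.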

[2] = test system: NCI-H661
Procedure, shortened: as §1

[3] = test system: NCI-H1355
Procedure, shortened: as §1

[4] = test system: NCI-H3122
Procedure, shortened: as §1

[5] = test system: NCI-H1563
Procedure, shortened: as §1

[6] = test system: NCI-H322M
Procedure, shortened: as §1

[7] = test system: SW 900
Procedure, shortened: as §1

[8] = test system: NCI-H460
Procedure, shortened: as §1

[9] = test system: NCI-H1755
Procedure, shortened: as §1

[10] = test system: LXF-289
Procedure, shortened: as §1

[11] = test system: NCI-H441
Procedure, shortened: as §1

[12] = test system: NCI-H1792
Procedure, shortened: as §1

[13] = test system: SK-MES-1
Procedure, shortened: as §1

[14] = test system: NCI-H1651
Procedure, shortened: as §1

[15] = test system: NCI-H520
Procedure, shortened: as §1

[16] = test system: LCLC-103H
Procedure, shortened: as §1

[17] = test system: RERF-LC-KJ
Procedure, shortened: as §1

[18] = test system: NCI-H2347
Procedure, shortened: as §1

[19] = test system: NCI-H522
Procedure, shortened: as §1

[20] = test system: PC-14
Procedure, shortened: as §1

[21] = test system: NCI-H596
Procedure, shortened: as §1

CCN(CC)CCCCNc1ncc2cc(-c3cc(OC)cc(OC)c3)c(NC(=O)NC(C)(C)C)nc2n1 + Nc1nc2[nH]cc(CCc3ccc(C(=O)N[C@@H](CCC(=O)O)C(=O)O)cc3)c2c(=O)[nH]1 [Pemetrexed] (partner 0.2 µM)
relative viability ([1]; first compound 0.01 µM): 0.511 | relative viability ([1]; first compound 0.03162 µM): 0.521 | relative viability ([1]; first compound 0.1 µM): 0.558 | relative viability ([1]; first compound 0.3162 µM): 0.518 | relative viability ([1]; first compound 1 µM): 0.445 | relative viability ([2]; first compound 0.01 µM): 0.968 | relative viability ([2]; first compound 0.03162 µM): 0.886 | relative viability ([2]; first compound 0.1 µM): 0.961 | relative viability ([2]; first compound 0.3162 µM): 0.986 | relative viability ([2]; first compound 1 µM): 0.95 | relative viability ([3]; first compound 0.01 µM): 1.06 | relative viability ([3]; first compound 0.03162 µM): 1.09 | relative viability ([3]; first compound 0.1 µM): 1.17 | relative viability ([3]; first compound 0.3162 µM): 1.11 | relative viability ([3]; first compound 1 µM): 1.02 | relative viability ([4]; first compound 0.01 µM): 0.208 | relative viability ([4]; first compound 0.03162 µM): 0.186 | relative viability ([4]; first compound 0.1 µM): 0.208 | relative viability ([4]; first compound 0.3162 µM): 0.203 | relative viability ([4]; first compound 1 µM): 0.223 | relative viability ([5]; first compound 0.01 µM): 0.72 | relative viability ([5]; first compound 0.03162 µM): 0.601 | relative viability ([5]; first compound 0.1 µM): 1.02 | relative viability ([5]; first compound 0.3162 µM): 0.737 | relative viability ([5]; first compound 1 µM): 0.633 | relative viability ([6]; first compound 0.01 µM): 0.612 | relative viability ([6]; first compound 0.03162 µM): 0.591 | relative viability ([6]; first compound 0.1 µM): 0.735 | relative viability ([6]; first compound 0.3162 µM): 0.642 | relative viability ([6]; first compound 1 µM): 0.567 | relative viability ([7]; first compound 0.01 µM): 0.529 | relative viability ([7]; first compound 0.03162 µM): 0.461 | relative viability ([7]; first compound 0.1 µM): 0.517 | relative viability ([7]; first compound 0.3162 µM): 0.509 | relative viability ([7]; first compound 1 µM): 0.309 | relative viability ([8]; first compound 0.01 µM): 0.0558 | relative viability ([8]; first compound 0.03162 µM): 0.0576 | relative viability ([8]; first compound 0.1 µM): 0.0567 | relative viability ([8]; first compound 0.3162 µM): 0.056 | relative viability ([8]; first compound 1 µM): 0.0563 | relative viability ([9]; first compound 0.01 µM): 0.413 | relative viability ([9]; first compound 0.03162 µM): 0.572 | relative viability ([9]; first compound 0.1 µM): 0.356 | relative viability ([9]; first compound 0.3162 µM): 0.448 | relative viability ([9]; first compound 1 µM): 0.435 | relative viability ([10]; first compound 0.01 µM): 0.923 | relative viability ([10]; first compound 0.03162 µM): 1.02 | relative viability ([10]; first compound 0.1 µM): 0.907 | relative viability ([10]; first compound 0.3162 µM): 0.884 | relative viability ([10]; first compound 1 µM): 0.849 | relative viability ([11]; first compound 0.01 µM): 0.257 | relative viability ([11]; first compound 0.03162 µM): 0.232 | relative viability ([11]; first compound 0.1 µM): 0.26 | relative viability ([11]; first compound 0.3162 µM): 0.249 | relative viability ([11]; first compound 1 µM): 0.25 | relative viability ([12]; first compound 0.01 µM): 1.17 | relative viability ([12]; first compound 0.03162 µM): 0.932 | relative viability ([12]; first compound 0.1 µM): 0.634 | relative viability ([12]; first compound 0.3162 µM): 0.945 | relative viability ([12]; first compound 1 µM): 0.296 | relative viability ([13]; first compound 0.01 µM): 1.11 | relative viability ([13]; first compound 0.03162 µM): 0.94 | relative viability ([13]; first compound 0.1 µM): 1.05 | relative viability ([13]; first compound 0.3162 µM): 1.07 | relative viability ([13]; first compound 1 µM): 0.98 | relative viability ([14]; first compound 0.01 µM): 0.597 | relative viability ([14]; first compound 0.03162 µM): 0.635 | relative viability ([14]; first compound 0.1 µM): 0.643 | relative viability ([14]; first compound 0.3162 µM): 0.787 | relative viability ([14]; first compound 1 µM): 0.495 | relative viability ([15]; first compound 0.01 µM): 0.8 | relative viability ([15]; first compound 0.03162 µM): 0.694 | relative viability ([15]; first compound 0.1 µM): 0.555 | relative viability ([15]; first compound 0.3162 µM): 0.511 | relative viability ([15]; first compound 1 µM): 0.314 | relative viability ([16]; first compound 0.01 µM): 0.444 | relative viability ([16]; first compound 0.03162 µM): 0.488 | relative viability ([16]; first compound 0.1 µM): 0.485 | relative viability ([16]; first compound 0.3162 µM): 0.457 | relative viability ([16]; first compound 1 µM): 0.533 | relative viability ([17]; first compound 0.01 µM): 0.497 | relative viability ([17]; first compound 0.03162 µM): 0.487 | relative viability ([17]; first compound 0.1 µM): 0.499 | relative viability ([17]; first compound 0.3162 µM): 0.428 | relative viability ([17]; first compound 1 µM): 0.514 | relative viability ([18]; first compound 0.01 µM): 0.419 | relative viability ([18]; first compound 0.03162 µM): 0.555 | relative viability ([18]; first compound 0.1 µM): 0.423 | relative viability ([18]; first compound 0.3162 µM): 0.412 | relative viability ([18]; first compound 1 µM): 0.382 | relative viability ([19]; first compound 0.01 µM): 0.989 | relative viability ([19]; first compound 0.03162 µM): 0.918 | relative viability ([19]; first compound 0.1 µM): 1.09 | relative viability ([19]; first compound 0.3162 µM): 0.888 | relative viability ([19]; first compound 1 µM): 0.921 | relative viability ([20]; first compound 0.01 µM): 0.123 | relative viability ([20]; first compound 0.03162 µM): 0.117 | relative viability ([20]; first compound 0.1 µM): 0.184 | relative viability ([20]; first compound 0.3162 µM): 0.139 | relative viability ([20]; first compound 1 µM): 0.141 | relative viability ([21]; first compound 0.01 µM): 0.453 | relative viability ([21]; first compound 0.03162 µM): 0.496 | relative viability ([21]; first compound 0.1 µM): 0.488 | relative viability ([21]; first compound 0.3162 µM): 0.584 | relative viability ([21]; first compound 1 µM): 0.443

— the supplement of paper PMC10307832
